Data published in ChEMBL document CHEMBL4270563, “Neurogenic and neuroprotective donepezil-flavonoid hybrids with sigma-1 affinity and inhibition of key enzymes in Alzheimer's disease” (Eur J Med Chem, 2018).
Active and inactive are the calls of the source. No cut-off for these calls is given here.

Experiments:
Cholinesterase = Cholinesterase (Homo sapiens, UniProt P06276); test: Inhibition of human serum BuChE using butyrylthiocholine as substrate pretreated for 5 mins followed by substrate addition and measured for 5 mins by Ellman's method
Cholinesterase, sequence (P06276 whole entry): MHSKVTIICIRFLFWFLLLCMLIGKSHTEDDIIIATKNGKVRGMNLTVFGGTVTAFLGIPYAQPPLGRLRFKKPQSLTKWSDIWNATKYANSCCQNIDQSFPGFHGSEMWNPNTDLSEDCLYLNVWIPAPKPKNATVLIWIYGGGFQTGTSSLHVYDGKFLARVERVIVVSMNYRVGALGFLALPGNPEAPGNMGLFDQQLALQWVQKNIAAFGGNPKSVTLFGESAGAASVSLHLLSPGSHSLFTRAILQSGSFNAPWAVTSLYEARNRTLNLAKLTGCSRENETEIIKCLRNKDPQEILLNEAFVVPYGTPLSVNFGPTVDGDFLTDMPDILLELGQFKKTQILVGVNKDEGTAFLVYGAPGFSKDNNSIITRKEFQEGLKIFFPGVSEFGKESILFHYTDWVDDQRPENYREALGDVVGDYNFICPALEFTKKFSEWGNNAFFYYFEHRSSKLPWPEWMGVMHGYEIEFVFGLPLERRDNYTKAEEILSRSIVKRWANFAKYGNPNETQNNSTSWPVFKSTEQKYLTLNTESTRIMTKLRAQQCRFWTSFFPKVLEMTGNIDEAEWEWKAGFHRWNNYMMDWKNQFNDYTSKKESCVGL

Acetylcholinesterase [1] = target: T1, Acetylcholinesterase (Homo sapiens, UniProt P22303); test: Inhibition of recombinant human AChE expressed in HEK293 cells using acetylthiocholine iodide as substrate pretreated for 5 mins followed by substrate addition and measured for 5 mins by Ellman's method
T1 sequence (P22303 whole entry): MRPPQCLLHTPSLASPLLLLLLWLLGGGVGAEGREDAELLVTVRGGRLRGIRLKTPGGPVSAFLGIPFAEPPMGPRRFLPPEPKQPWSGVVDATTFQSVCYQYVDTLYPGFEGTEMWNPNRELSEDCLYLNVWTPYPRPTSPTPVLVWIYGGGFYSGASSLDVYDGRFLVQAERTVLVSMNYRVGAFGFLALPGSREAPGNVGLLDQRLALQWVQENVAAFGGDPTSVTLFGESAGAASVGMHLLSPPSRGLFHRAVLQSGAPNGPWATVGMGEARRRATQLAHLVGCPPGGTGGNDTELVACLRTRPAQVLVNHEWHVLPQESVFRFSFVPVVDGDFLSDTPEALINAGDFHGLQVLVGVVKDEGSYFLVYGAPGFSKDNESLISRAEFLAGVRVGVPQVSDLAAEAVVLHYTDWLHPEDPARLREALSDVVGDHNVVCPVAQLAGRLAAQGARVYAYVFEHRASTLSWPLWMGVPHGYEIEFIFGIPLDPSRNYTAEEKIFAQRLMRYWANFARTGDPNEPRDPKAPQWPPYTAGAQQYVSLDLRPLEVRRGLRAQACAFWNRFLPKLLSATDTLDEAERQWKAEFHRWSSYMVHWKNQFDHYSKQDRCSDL

Acetylcholinesterase [2] = target: T1, Acetylcholinesterase; test: Inhibition of recombinant human AChE expressed in HEK293 cells using varying levels of acetylthiocholine iodide as substrate by Lineweaver-burk plot analysis
Homo sapiens = species on record: Homo sapiens; test: Selectivity index, ratio of IC50 for human serum BuChE to IC50 for recombinant human AChE expressed in HEK293 cells; assay type: cell-based
[3] = Selectivity ratio of Ki for displacement of [3H]DTG from sigma2 receptor in rat liver membranes to Ki for displacement of (+)-[3H]pentazocine from guinea pig brain membrane sigma1 receptor; assay type: cell membranes
in vitro = conditions: PAMPA, pH 7.4
Description: Permeability of the compound in pH 7.4 PBS by PAMPA-BBB assay

[4] = target: Sigma non-opioid intracellular receptor 1 (Cavia porcellus, UniProt Q60492); test: Displacement of (+)-[3H]pentazocine from guinea pig brain membrane sigma1 receptor by liquid scintillation counting method
Sigma non-opioid intracellular receptor 1, sequence (Q60492 whole entry): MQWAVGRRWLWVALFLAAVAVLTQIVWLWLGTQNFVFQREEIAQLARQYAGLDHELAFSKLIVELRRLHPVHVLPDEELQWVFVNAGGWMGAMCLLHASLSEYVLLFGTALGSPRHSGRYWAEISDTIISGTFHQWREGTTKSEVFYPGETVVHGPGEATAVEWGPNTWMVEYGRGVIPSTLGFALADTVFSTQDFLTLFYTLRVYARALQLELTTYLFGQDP

[5] = target: T2, Amine oxidase [flavin-containing] B (Homo sapiens, UniProt P27338); test: biochemical; assay type: cell-based
T2 sequence (P27338 whole entry): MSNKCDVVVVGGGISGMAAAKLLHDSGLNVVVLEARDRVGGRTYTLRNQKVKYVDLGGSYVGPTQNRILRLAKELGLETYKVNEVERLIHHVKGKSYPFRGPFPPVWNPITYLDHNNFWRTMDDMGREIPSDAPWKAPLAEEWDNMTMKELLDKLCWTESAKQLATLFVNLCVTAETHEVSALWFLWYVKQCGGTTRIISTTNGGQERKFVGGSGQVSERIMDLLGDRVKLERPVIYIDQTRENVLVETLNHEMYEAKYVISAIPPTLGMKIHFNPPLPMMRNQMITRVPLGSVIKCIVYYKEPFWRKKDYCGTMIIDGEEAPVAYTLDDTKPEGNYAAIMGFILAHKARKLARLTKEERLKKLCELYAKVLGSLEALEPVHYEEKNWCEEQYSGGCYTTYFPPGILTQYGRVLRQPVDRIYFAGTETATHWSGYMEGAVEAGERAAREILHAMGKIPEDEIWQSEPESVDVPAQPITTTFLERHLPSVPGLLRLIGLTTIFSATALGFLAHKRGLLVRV
Description: Inhibition of recombinant human MAO-B expressed in baculovirus infected BTI insect cells using p-tyramine as substrate pretreated for 15 mins followed by substrate addition by horse-radish peroxidase/amplex red-based fluorescence method

[6] = target: T3, Polyunsaturated fatty acid 5-lipoxygenase (Homo sapiens, UniProt P09917); test: Inhibition of human 5-lipoxygenase using arachidonic acid as substrate pretreated for 10 mins followed by substrate and ATP addition and measured after 20 mins by H2DCFDA probe based fluorescence assay
T3 sequence (P09917 whole entry): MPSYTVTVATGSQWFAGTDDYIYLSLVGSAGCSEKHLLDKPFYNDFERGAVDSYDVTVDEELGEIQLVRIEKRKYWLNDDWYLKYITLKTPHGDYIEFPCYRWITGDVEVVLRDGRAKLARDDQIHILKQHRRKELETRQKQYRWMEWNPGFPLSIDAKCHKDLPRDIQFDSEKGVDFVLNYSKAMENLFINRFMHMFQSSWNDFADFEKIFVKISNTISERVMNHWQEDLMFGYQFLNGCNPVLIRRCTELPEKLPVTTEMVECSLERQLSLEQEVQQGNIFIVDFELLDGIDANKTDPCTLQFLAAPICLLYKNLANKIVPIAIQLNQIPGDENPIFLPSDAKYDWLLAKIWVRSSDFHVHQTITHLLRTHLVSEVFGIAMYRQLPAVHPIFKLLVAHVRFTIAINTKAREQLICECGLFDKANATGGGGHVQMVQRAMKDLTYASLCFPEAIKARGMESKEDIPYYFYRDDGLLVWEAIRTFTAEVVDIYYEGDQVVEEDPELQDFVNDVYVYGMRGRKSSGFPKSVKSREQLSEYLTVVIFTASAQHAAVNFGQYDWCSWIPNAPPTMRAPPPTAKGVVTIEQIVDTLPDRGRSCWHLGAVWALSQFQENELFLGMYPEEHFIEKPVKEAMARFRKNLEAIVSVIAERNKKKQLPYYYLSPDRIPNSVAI

[7] = Antioxidant activity assessed as trolox equivalent of AAPH-induced radical scavenging activity at 10 uM pretreated for 15 mins followed by APPH challenge measured every minute for 80 mins by ORAC-FL assay; assay type: functional
[8] = target: T4, Sigma intracellular receptor 2 (Rattus norvegicus, UniProt Q5U3Y7); test: Displacement of [3H]DTG from sigma2 receptor in rat liver membranes by liquid scintillation counting method; assay type: cell membranes, Membrane
T4 sequence (Q5U3Y7 whole entry): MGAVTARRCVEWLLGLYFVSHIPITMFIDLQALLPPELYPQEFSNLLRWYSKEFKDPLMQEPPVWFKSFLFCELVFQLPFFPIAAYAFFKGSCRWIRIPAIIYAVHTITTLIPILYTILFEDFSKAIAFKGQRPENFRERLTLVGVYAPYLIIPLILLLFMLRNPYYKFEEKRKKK

[9] = target: T5, Polyunsaturated fatty acid 5-lipoxygenase (Homo sapiens) (UniProt P09917); test: Inhibition of human 5-lipoxygenase at 10 uM using arachidonic acid as substrate pretreated for 10 mins followed by substrate and ATP addition and measured after 20 mins by […] probe based fluorescence assay relative to control
T5 sequence (whole entry): T3 sequence (P09917 whole entry)

[10] = target: T6, Amine oxidase [flavin-containing] A (Homo sapiens, UniProt P21397); test: Inhibition of recombinant human MAO-A expressed in baculovirus infected BTI insect cells using p-tyramine as substrate pretreated for 15 mins followed by substrate addition by horse-radish peroxidase/amplex red-based fluorescence method
T6 sequence (P21397 whole entry): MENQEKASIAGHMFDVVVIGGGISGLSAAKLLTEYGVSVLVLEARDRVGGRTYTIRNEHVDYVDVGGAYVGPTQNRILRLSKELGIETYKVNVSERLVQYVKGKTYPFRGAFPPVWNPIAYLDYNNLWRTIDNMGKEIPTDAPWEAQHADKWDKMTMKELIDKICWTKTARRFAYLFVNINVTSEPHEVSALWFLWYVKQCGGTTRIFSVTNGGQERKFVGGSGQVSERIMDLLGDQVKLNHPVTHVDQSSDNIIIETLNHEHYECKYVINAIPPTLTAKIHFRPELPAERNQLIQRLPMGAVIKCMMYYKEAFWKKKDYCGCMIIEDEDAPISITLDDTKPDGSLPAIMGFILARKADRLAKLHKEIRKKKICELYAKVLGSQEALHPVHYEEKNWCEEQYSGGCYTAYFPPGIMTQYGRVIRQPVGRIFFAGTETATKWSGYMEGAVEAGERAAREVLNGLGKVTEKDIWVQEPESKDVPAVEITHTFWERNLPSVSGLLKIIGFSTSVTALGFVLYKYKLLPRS

SMILES	IC50 (Cholinesterase) [µM]	IC50 (Acetylcholinesterase [1]) [µM]	Ki (Acetylcholinesterase [2]) [µM]	Ratio IC50 (Homo sapiens)	Ratio Ki [3]	Papp (in vitro) [×10⁻⁶ cm/s]	Ki [4] [µM]	IC50 [5] [µM]	IC50 [6] [µM]	Activity [7]	Ki [8] [µM]	inhibition [9] [%]	IC50 [10] [µM]
COc1cc2oc(C(=O)OCCC3CCN(Cc4ccccc4)CC3)cc(=O)c2cc1OC	> 10	0.056	0.011										
COc1cccc2oc(C(=O)NCCC3CCN(Cc4ccccc4)CC3)cc(=O)c12	> 10	0.87		> 12									
COc1cc2[nH]c(C(=O)NCCC3CCN(Cc4ccccc4)CC3)cc(=O)c2cc1OC	> 10	0.17	0.06	> 59	13	5.3	0.0363	> 100	> 100	inactive	0.487	31	> 100
COc1ccc2oc(C(=O)OCC3CCN(Cc4ccccc4)CC3)cc(=O)c2c1	> 10	7.49		> 1.3		6.1							
COc1ccc2[nH]c(C(=O)NCCC3CCN(Cc4ccccc4)CC3)cc(=O)c2c1	> 10	0.88		> 11	64	12	0.0072	> 100	> 100	inactive	0.459	31	> 100
COc1cc2nc(C(=O)NCCC3CCN(Cc4ccccc4)CC3)cc(OC)c2cc1OC	8.79	0.62		14		13							
COc1cc2oc(C(=O)NCC3CCN(Cc4ccccc4)CC3)cc(=O)c2cc1OC	> 10	1.46		> 6.8					> 100			45	
COc1ccc2c(=O)cc(C(=O)NCCC3CCN(Cc4ccccc4)CC3)oc2c1	9.9	0.033		300		7.6		> 100	> 100			31	> 100
COc1ccc2oc(C(=O)NCCCC3CCN(Cc4ccccc4)CC3)cc(=O)c2c1	5.8	0.37		16		10.6		> 100	82.4	inactive			> 100
COc1cccc2c(=O)cc(C(=O)NCCC3CCN(Cc4ccccc4)CC3)[nH]c12	> 10	1.64		> 6.1		15.3		71.6	> 100	inactive		47	52.4
